In the NIST ThermoML archive (doi:10.1016/j.jct.2016.09.022):
Numbers after ± are expanded uncertainties.

What was measured:
[1] = Liquid; for speed of sound: Frequency=1.5 MHz, Single path-length method; for mass density: 298.15 K, 101.33 kPa, Vibrating tube method
[2] = refractive index (Na D-line) (dimensionless); conditions: 298.15 K; 101.33 kPa; Liquid; Standard Abbe refractometry

CCCO [propan-1-ol]
speed of sound [m/s], [1]
Conditions | 283.15 K | 293.15 K | 303.15 K | 313.15 K | 323.15 K | 333.15 K | 343.15 K
100 kPa | 1260.3 ± 2.5 | 1223.5 ± 2.5 | 1189.2 ± 2.4 | 1155.3 ± 2.4 | 1121.7 ± 2.3 | 1088.3 ± 2.2 | 1054.4 ± 2.1
5100 kPa | 1287.8 ± 2.8 | 1252.2 ± 2.8 | 1219.6 ± 2.7 | 1186.7 ± 2.7 | 1153.8 ± 2.6 | 1122.2 ± 2.6 | 1090.2 ± 2.6
10100 kPa | 1313.7 ± 2.8 | 1279.6 ± 2.8 | 1248.2 ± 2.7 | 1216.4 ± 2.7 | 1184.6 ± 2.7 | 1153.7 ± 2.6 | 1123.4 ± 2.6
20100 kPa | 1362.3 ± 2.9 | 1330 ± 2.9 | 1300.9 ± 2.8 | 1271.4 ± 2.8 | 1241.7 ± 2.7 | 1212.8 ± 2.7 | 1183.9 ± 2.7
30100 kPa | 1407.9 ± 3 | 1377 ± 2.9 | 1349.1 ± 2.9 | 1320.6 ± 2.8 | 1293 ± 2.8 | 1265.9 ± 2.8 | 1239.2 ± 2.7
40100 kPa | 1450.3 ± 3 | 1420.8 ± 3 | 1394.3 ± 2.9 | 1366.8 ± 2.9 | 1340.2 ± 2.9 | 1314.2 ± 2.8 | 1289.2 ± 2.8
50100 kPa | 1490.2 ± 3.1 | 1461.7 ± 3 | 1436.6 ± 3 | 1410.1 ± 3 | 1384.6 ± 2.9 | 1359.7 ± 2.9 | 1335.5 ± 2.8
60100 kPa | 1527.4 ± 3.2 | 1500.3 ± 3.1 | 1476.2 ± 3.1 | 1450.6 ± 3 | 1426.4 ± 3 | 1402.2 ± 2.9 | 1379 ± 2.9
70100 kPa | 1563.2 ± 3.2 | 1537.2 ± 3.2 | 1513.7 ± 3.1 | 1489.5 ± 3.1 | 1465.1 ± 3 | 1441.9 ± 3 | 1419.9 ± 3
80100 kPa | 1597.2 ± 3.3 | 1572.1 ± 3.2 | 1549.5 ± 3.2 | 1525.9 ± 3.1 | 1502.3 ± 3.1 | 1479.3 ± 3.1 | 1458.2 ± 3
90100 kPa | 1630 ± 3.3 | 1605.3 ± 3.3 | 1583.6 ± 3.2 | 1560.4 ± 3.2 | 1537.5 ± 3.2 | 1515.2 ± 3.1 | 1497.2 ± 3.1
95100 kPa | 1645.7 ± 3.4 | 1621.6 ± 3.3 | 1600.1 ± 3.3 | 1577.2 ± 3.2 | 1554.4 ± 3.2 | 1532.6 ± 3.2 | 1512.2 ± 3.1

Conditions | mass density [kg/m3] | refractive index
[1] | 799.5 ± 1.6 | –
[2] | – | 1.383 ± 0.0028

CCCCCCCC [octane]
speed of sound [m/s], [1]
Conditions | 283.15 K | 293.15 K | 303.15 K | 313.15 K | 323.15 K | 333.15 K | 343.15 K
100 kPa | 1234.6 ± 2.5 | 1193.7 ± 2.5 | 1151.8 ± 2.4 | 1112.1 ± 2.3 | 1071.1 ± 2.2 | 1030.9 ± 2.1 | 990.7 ± 2.1
5100 kPa | 1267.1 ± 2.9 | 1227.9 ± 2.8 | 1187.6 ± 2.8 | 1149 ± 2.8 | 1110.4 ± 2.7 | 1072.4 ± 2.7 | 1034.3 ± 2.7
10100 kPa | 1296.9 ± 2.9 | 1259.5 ± 2.8 | 1221 ± 2.8 | 1183.4 ± 2.8 | 1146.1 ± 2.7 | 1110.1 ± 2.7 | 1074.2 ± 2.6
20100 kPa | 1353.6 ± 3 | 1317.2 ± 2.9 | 1282.1 ± 2.9 | 1247.3 ± 2.8 | 1212.3 ± 2.8 | 1178.2 ± 2.7 | 1145 ± 2.7
30100 kPa | 1405.7 ± 3 | 1370.4 ± 3 | 1336.8 ± 2.9 | 1303.8 ± 2.9 | 1271.6 ± 2.8 | 1239.8 ± 2.8 | 1208.7 ± 2.8
40100 kPa | 1453.5 ± 3.1 | 1419.6 ± 3 | 1388.1 ± 3 | 1356.4 ± 2.9 | 1325.3 ± 2.9 | 1295 ± 2.9 | 1265.9 ± 2.8
50100 kPa | 1498 ± 3.2 | 1465.6 ± 3.1 | 1435.5 ± 3.1 | 1405.1 ± 3 | 1375.2 ± 3 | 1346.2 ± 2.9 | 1318 ± 2.9
60100 kPa | 1539.8 ± 3.2 | 1508.4 ± 3.2 | 1480 ± 3.1 | 1450.7 ± 3.1 | 1421.8 ± 3 | 1393.9 ± 3 | 1367.8 ± 2.9
70100 kPa | 1579.8 ± 3.3 | 1549 ± 3.2 | 1521.7 ± 3.2 | 1493.2 ± 3.1 | 1465.5 ± 3.1 | 1438.5 ± 3 | 1412.8 ± 3
80100 kPa | 1619 ± 3.4 | 1587.3 ± 3.3 | 1561.4 ± 3.3 | 1533.6 ± 3.2 | 1506.6 ± 3.2 | 1480.2 ± 3.1 | 1455.5 ± 3.1
90100 kPa | 1652.4 ± 3.4 | 1623.9 ± 3.4 | 1598.9 ± 3.3 | 1571.9 ± 3.3 | 1545.7 ± 3.2 | 1519.8 ± 3.2 | 1496 ± 3.1
95100 kPa | 1670.7 ± 3.5 | 1641.8 ± 3.4 | 1617 ± 3.4 | 1590.2 ± 3.3 | 1564.5 ± 3.3 | 1539 ± 3.2 | 1515.2 ± 3.2

Conditions | mass density [kg/m3] | refractive index
[1] | 698.4 ± 1.4 | –
[2] | – | 1.3951 ± 0.0028

CCCCCC [hexane]
speed of sound [m/s], [1]
Conditions | 283.15 K | 293.15 K | 303.15 K | 313.15 K | 323.15 K | 333.15 K | 343.15 K
100 kPa | 1147.3 ± 2.5 | 1102.8 ± 2.5 | 1056.2 ± 2.4 | 1011.6 ± 2.3 | 966.77 ± 2.2 | 923.14 ± 2.1 | –
105 kPa | – | – | – | – | – | – | 877.65 ± 2.1
5100 kPa | 1183.8 ± 2.9 | 1141.9 ± 2.9 | 1097.9 ± 2.9 | 1055.9 ± 2.9 | 1013.6 ± 2.9 | 972.45 ± 2.9 | 931.79 ± 2.9
10100 kPa | 1218.6 ± 3 | 1177.2 ± 2.9 | 1135.8 ± 2.9 | 1096.4 ± 2.8 | 1056.7 ± 2.8 | 1017.2 ± 2.8 | 977.66 ± 2.8
20100 kPa | 1283.2 ± 3 | 1243.4 ± 3 | 1204.4 ± 2.9 | 1167.8 ± 2.9 | 1131.8 ± 2.9 | 1096.3 ± 2.8 | 1060.6 ± 2.8
30100 kPa | 1339.6 ± 3.1 | 1302.4 ± 3 | 1266.5 ± 3 | 1231.8 ± 2.9 | 1197.6 ± 2.9 | 1164 ± 2.9 | 1131.3 ± 2.8
40100 kPa | 1391.9 ± 3.1 | 1356 ± 3.1 | 1321.9 ± 3 | 1289.3 ± 3 | 1256.9 ± 2.9 | 1225.4 ± 2.9 | 1194.6 ± 2.9
50100 kPa | 1440.2 ± 3.2 | 1405.9 ± 3.1 | 1373.7 ± 3.1 | 1341.4 ± 3 | 1311 ± 3 | 1280.6 ± 3 | 1252.1 ± 2.9
60100 kPa | 1484.8 ± 3.2 | 1452.3 ± 3.2 | 1421.1 ± 3.1 | 1390.3 ± 3.1 | 1361.3 ± 3.1 | 1331.7 ± 3 | 1304.4 ± 3
70100 kPa | 1526.9 ± 3.3 | 1495.6 ± 3.3 | 1464.4 ± 3.2 | 1435.6 ± 3.2 | 1408.2 ± 3.1 | 1380.5 ± 3.1 | 1354.1 ± 3
80100 kPa | 1566.5 ± 3.4 | 1536.7 ± 3.3 | 1508.3 ± 3.3 | 1478.3 ± 3.2 | 1451.5 ± 3.2 | 1425.6 ± 3.1 | 1400.1 ± 3.1
90100 kPa | 1604.6 ± 3.5 | 1575.4 ± 3.4 | 1548 ± 3.4 | 1519.6 ± 3.3 | 1493 ± 3.3 | 1467.5 ± 3.2 | 1442.2 ± 3.2
95100 kPa | 1622.6 ± 3.5 | 1594.1 ± 3.4 | 1567.1 ± 3.4 | 1539.5 ± 3.3 | 1512.6 ± 3.3 | 1487.5 ± 3.2 | 1463.4 ± 3.2

Conditions | mass density [kg/m3] | refractive index
[1] | 654.9 ± 1.3 | –
[2] | – | 1.3723 ± 0.0028
